Data from patent publication US10047104B2, “Bicyclic heterocyclyl derivatives as IRAK4 inhibitors” (Aurigene Discovery Technologies Limited, priority 2014, dated 2018).
Counter-ions that a name gives are not always drawn.

Target: T1, recombinant IRAK-4 kinase (Homo sapiens, UniProt Q9NWZ3)
T1 construct: purchased Millipore, USA
T1 sequence (Q9NWZ3 1-460): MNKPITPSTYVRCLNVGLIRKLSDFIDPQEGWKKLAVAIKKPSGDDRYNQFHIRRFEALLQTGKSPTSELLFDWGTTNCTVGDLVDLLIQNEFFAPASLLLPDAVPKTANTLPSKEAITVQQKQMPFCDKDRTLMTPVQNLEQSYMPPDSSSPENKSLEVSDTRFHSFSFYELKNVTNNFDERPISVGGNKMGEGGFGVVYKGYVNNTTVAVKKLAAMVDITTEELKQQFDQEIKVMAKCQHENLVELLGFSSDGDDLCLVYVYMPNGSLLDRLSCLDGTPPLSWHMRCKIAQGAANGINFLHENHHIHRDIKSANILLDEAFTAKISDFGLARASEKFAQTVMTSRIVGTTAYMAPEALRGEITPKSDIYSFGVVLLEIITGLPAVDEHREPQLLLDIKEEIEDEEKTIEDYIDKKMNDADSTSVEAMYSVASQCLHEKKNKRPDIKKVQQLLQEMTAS
Assay: IRAK-4 Biochemical Assay (TR-FRET)
Conditions: 5 ng IRAK-4 kinase, 100 nM Biotin Histone H3, 20 μM ATP, 30 minutes pre-incubation, read-out: IC50 values for IRAK4 activity
Protocol: Compounds were tested for their potential to inhibit IRAK-4 enzyme in a TR-FRET assay using recombinant IRAK-4 kinase from Millipore, USA. The assay buffer was 50 mM Tris-HCl pH 7.5, 20 mM MgCl2, 1 mM EGTA, 2 mM DTT, 3 mM MnCl2 and 0.01% Tween20. 5 ng of IRAK-4 kinase was used for the assay. After pre-incubation of enzyme with test compound for 30 minutes at room temperature, a substrate mix containing 100 nM Biotin Histone H3 (Millipore, USA) and 20 μM ATP (Sigma, USA) was added and the reaction was incubated for 30 minutes. Post incubation, the reaction was stopped by the addition of stop mix containing 40 mM EDTA, 1 nM of Europium-Anti-Phospho-Histone H3 (Ser10) antibody (Perkin Elmer, USA) and 20 nM Sure Light Allophycocyanin-Streptavidin (Perkin Elmer, USA).

Row | Compound | IC50 [nM]
1 | O=C(Nc1cc2oc(N3CCCCC3)nc2nc1N1CCCCC1)c1cccc(-c2cn[nH]c2)n1 [Example 4, N-(2,5-di(piperidin-1-yl)oxazolo[4,5-b]pyridin-6-yl)-6-(1H-pyrazol-4-yl)picolinamide hydrochloride] | 50 to 100
2 | Cn1cc(-c2cccc(C(=O)Nc3cc4oc(N5CCCCC5)nc4nc3N3CCCCC3)n2)cn1 [Example 9, N-(2,5-di(piperidin-1-yl)oxazolo[4,5-b]pyridin-6-yl)-6-(1-methyl-1H-pyrazol-4-yl)picolinamide] | 50 to 100
3 | O=C(Nc1cnc2nc(N3CCOCC3)sc2c1)c1cccc(-c2cn[nH]c2)n1 [Example 17, N-(2-morpholinothiazolo[4,5-b]pyridin-6-yl)-6-(1H-pyrazol-4-yl)picolinamide] | > 100
4 | O=C(Nc1cc2sc(N3CCOCC3)nc2nc1N1CCCCC1)c1cccc(-c2cn[nH]c2)n1 [Example 21, N-(2-morpholino-5-(piperidin-1-yl)thiazolo[4,5-b]pyridin-6-yl)-6-(1H-pyrazol-4-yl)picolinamide] | < 50
5 | O=C(Nc1cc2sc(N3CCCCC3)nc2nc1N1CCCCC1)c1cccc(-c2cn[nH]c2)n1 [Example 22, N-(2,5-di(piperidin-1-yl)thiazolo[4,5-b]pyridin-6-yl)-6-(1H-pyrazol-4-yl)picolinamide] | < 50
6 | Cc1cc(-c2nc(C(=O)Nc3cc4sc(N5CCCCC5)nc4nc3N3CCCCC3)co2)ccn1 [Example 23, N-(2,5-di(piperidin-1-yl)thiazolo[4,5-b]pyridin-6-yl)-2-(2-methylpyridin-4-yl)oxazole-4-carboxamide] | < 50
7 | Cc1cc(-c2nc(C(=O)Nc3cc4oc(N5CCOCC5)nc4nc3N3CCOCC3)co2)ccn1 [Example 24, N-(2,5-dimorpholinooxazolo[4,5-b]pyridin-6-yl)-2-(2-methylpyridin-4-yl)oxazole-4-carboxamide] | < 50

Second part, the compound after the results:

Row | IC50 [nM] | Compound
8 | < 50 | Cc1cc(-c2nc(C(=O)Nc3cc4oc(N5CCCCC5)nc4nc3N3CCCCC3)co2)ccn1 [Example 5, N-(2,5-di(piperidin-1-yl)oxazolo[4,5-b]pyridin-6-yl)-2-(2-methylpyridin-4-yl)oxazole-4-carboxamide]
9 | < 50 | O=C(Nc1cc2oc(N3CCOCC3)nc2nc1N1CCCCC1)c1cccc(Cl)n1 [Example 8, 6-chloro-N-(2-morpholino-5-(piperidin-1-yl)oxazolo[4,5-b]pyridin-6-yl)picolinamide]
10 | < 50 | O=C(Nc1cc2oc(N3CCCCC3)nc2nc1N1CCCCC1)c1coc(-c2ccnc(Cl)c2)n1 [Example 10, 2-(2-chloropyridin-4-yl)-N-(2,5-di(piperidin-1-yl)oxazolo[4,5-b]pyridin-6-yl)oxazole-4-carboxamide]
11 | < 50 | Cc1cc(-c2nc(C(=O)Nc3cc4oc(N5CCOCC5)nc4nc3N[C@H]3CCNC3)co2)ccn1 [Example 11, (S)-2-(2-methylpyridin-4-yl)-N-(2-morpholino-5-(pyrrolidin-3-ylamino)oxazolo[4,5-b]pyridin-6-yl)oxazole-4-carboxamide]
12 | < 50 | Nc1ccc(-c2cccc(C(=O)Nc3cc4sc(N5CCOCC5)nc4cn3)n2)cn1 [Example 13, 6′-amino-N-(2-morpholinothiazolo[4,5-c]pyridin-6-yl)-[2,3′-bipyridine]-6-carboxamide]
13 | < 50 | Nc1ccc(-c2cccc(C(=O)Nc3ccc4nc(N5CCOCC5)sc4n3)n2)cn1 [Example 14, 6′-amino-N-(2-morpholinothiazolo[5,4-b]pyridin-5-yl)-[2,3′-bipyridine]-6-carboxamide]
14 | < 50 | Nc1ccc(-c2cccc(C(=O)Nc3cnc4nc(N5CCOCC5)sc4c3)n2)cn1 [Example 16, 6′-amino-N-(2-morpholinothiazolo[4,5-b]pyridin-6-yl)-[2,3′-bipyridine]-6-carboxamide]
15 | < 50 | Cc1cc(-c2nc(C(=O)Nc3cc4sc(N5CCOCC5)nc4nc3N3CCCCC3)co2)ccn1 [Example 20, 2-(2-methylpyridin-4-yl)-N-(2-morpholino-5-(piperidin-1-yl)thiazolo[4,5-b]pyridin-6-yl)oxazole-4-carboxamide]
